Assay results published in article PMC9607578, “Chemopreventive Effect on Human Colon Adenocarcinoma Cells of Styrylquinolines: Synthesis, Cytotoxicity, Proapoptotic Effect and Molecular Docking Analysis” (Molecules, 2022).
Entries after “also recorded” stand apart in the source; their conditions may differ. Where two headings read alike, the source gives them in different places.

Columns and labels:
HaCaT cells = assay: Cytotoxic activity, sulforhodamine B (SRB) staining; format: cell-based; details: Homo sapiens, mean ± SE, read-out: HaCaT IC50
Experimental: (§1) For the biological assays, the human colon adenocarcinoma cell line SW480 and its metastatic derivative SW620 were used. Additionally, the nonmalignant cell line HaCaT was used to find the selectivity index of the compounds. All cell lines were obtained by the Colombian Plant Chemistry Group of the Faculty of Exact and Natural Sciences of the University of Antioquia (Medellín, Colombia) from the European Collection of Authenticated Cell Cultures (ECACC, Salisbury, UK). Cells were cultured in a DMEM medium with 4500 mg/L of glucose and L-glutamine (Sigma-Aldrich, Burlington, MA, USA), supplemented with 10% heat-inactivated (56 °C) horse serum (Gibco, Waltham, MA, USA), 1% penicillin/streptomycin (Sigma-Aldrich, Burlington, MA, USA), and 1% non-essential amino acids (Sigma-Aldrich, Burlington, MA, USA). For all experiments, horse serum was reduced to 3%, and the medium was supplemented with […] of transferrin, 5 ng/mL of selenium, and […] of insulin (ITS; Sigma-Aldrich, Burlington, MA, USA). All cell lines were incubated at 37 °C in a 5% CO2 atmosphere. Additionally, cell cultures were constantly monitored with PCR (Sigma-Aldrich, Burlington, MA, USA) for Mycoplasma spp. to control contamination with this agent.
(§2) To evaluate the effect of styrylquinolines on the viability of the SW480, SW620, and HaCaT cell lines, sulforhodamine B (SRB) staining was used. SRB is a colorimetric assay that indirectly estimates the number of living cells based on the ability of SRB to bind to protein components of adherent cells. Briefly, the malignant cell lines were seeded at a final density of 2.0 × 10^4 cells/well, and the nonmalignant cell line was seeded at a final density of 1.5 × 10^4 cells/well in 96-well tissue culture plates. All cell lines were incubated at 37 °C in a 5% CO2 atmosphere for 24 h to enable cell adherence, and they were then treated for 24 and 48 h with increasing concentrations (0.01–160 µM) of the styrylquinolines or their respective precursors (8-hydroxyquinoline and resveratrol), as well as 1% DMSO (negative control) and 5-FU (standard drug). After treatment, cells were fixed with trichloroacetic acid (50% v/v; PanReac AppliChem, Barcelona, Spain) for a period of one hour at 4 °C. After this, the cells were incubated for 30 min at room temperature with 0.4% (w/v) SRB (Sigma-Aldrich, Burlington, MA, USA). To remove unbound SRB, the cells were washed with 1% acetic acid, and the plates were allowed to dry at room temperature. Protein-bound SRB was solubilized with 10 mM Tris-base (Amresco, Cleveland, OH, USA) for 30 min at room temperature under constant agitation, and absorbance was measured at 490 nm in a microplate reader (Bio-Rad iMark^TM, Hercules, CA, USA). Finally, the concentration of the compound that inhibits 50% of cell growth (IC50) and the selectivity index (SI) were determined.

SW620 cells [1] = assay: Apoptosis, APO-DIRECT kit (FITC-dUTP/PI), flow cytometry; format: cell-based, human; details: treated at IC50
Experimental: To assess whether the chosen styrylquinolines generated apoptosis in malignant cells, the APO-DIRECT^TM kit (Chemicon^R International, Temecula, CA, USA) was used following the manufacturer’s instructions. Briefly, the malignant cells were seeded at a final density of 1.1 × 10^6 cells in a T75 culture flask and incubated for 24 h at 37 °C in a 5% CO2 atmosphere. […] After incubation time, cells were fixed and stained with FITC-dUTP and propidium iodide (PI), respectively, according to the manufacturer’s protocol. Analysis was conducted via flow cytometry (LSR Fortessa; BD Biosciences, San Jose, CA, USA) and FlowJo 7.6 software. All PI-FITC-positive cells were considered to be apoptotic cells.

SW620 cells [2] = assay: Immunological markers, ProcartaPlex 18-plex panel, MAGPIX; format: cell-based, human; details: at IC50
Experimental: (§3) To assess whether styrylquinolines had any effect on the expression of immunological markers associated with the inflammatory process, malignant cells were seeded at a final density of 2.5 × 10^5 cells/well in 6-well tissue culture plates, and cell adherence was allowed. […] After the incubation time, the supernatant was collected, and the levels of the following analytes were measured using the ProcartaPlex Human Th1/Th2/Th9/Th17/Th22/Treg 18-plex panel (Invitrogen) according to the manufacturer’s protocol: GM-CSF, IFN-γ, TNF-α, IL-10, IL-12p70, IL-13, IL-17A, IL-18, IL-1β, IL-2, IL-21, IL-22, IL-23, IL-27, IL-4, IL-5, IL-6, and IL-9. Furthermore, to evaluate the participation of these hybrids in the production of some markers associated with the apoptosis process (Bcl-2, active Caspase-3 and cleaved PARP) in colorectal cancer cells, the human apoptosis panel (Invitrogen, Waltham, Massachusetts, United States) was used following the manufacturer’s instructions. To normalize the concentration of each marker, total proteins were quantified using the PierceTM BCA kit (Thermo Fisher Scientific, Waltham, MA, USA).
(§4) In both cases, the reading was performed in the MAGPIX marker multiplex analyzer (Luminex XMAP, Austin, TX, USA). The concentration of each molecule was extrapolated from the calibration curve (individual for each marker) obtained from the standards provided by the kit.

SW480 cells [3] = assay: as above; format: cell-based, human; details: at IC50
Experimental: as §3, §4

SW620 cells [4] = assay: Antiproliferative activity, SRB staining, 0-8 days; format: cell-based, human; details: for Concentration required to significantly decrease cell viability percentage from day 2 post-treatment: SW620, day 2; for Concentration from which cell viability percentage is decreased to 0% / high percentage of reduction: SW620, treatment up to 8 days
Experimental: (§5) The antiproliferative activity of styrylquinolines with higher selective cytotoxicity toward malignant cells was also tested with SRB staining. Briefly, cells were seeded to a final density of 2.5 × 10^3 cells/well in 96-well tissue culture plates and incubated under the same conditions described for cytotoxic activity. After 24 h, the cells were treated with increasing concentrations (5–80 µM) of the selected hybrids or with 1% DMSO (negative control) for 0, 2, 4, 6, and 8 days. Culture media were replaced every 48 h to guarantee the basic nutrients required for cell growth and viability, maintaining the concentrations of each of the selected hybrids. After each incubation time, cells were fixed and stained, and the absorbance was measured as described above.

SW480 cells [5] = assay: Antiproliferative activity, SRB staining, 0-8 days; format: cell-based, human; details: for Concentration required to significantly decrease cell viability percentage from day 2 post-treatment: SW480, day 2; for Concentration from which cell viability percentage is decreased to 0% / high percentage of reduction: SW480, treatment up to 8 days
Experimental: as §5

SW620 cells [6] = assay: Apoptosis markers (Bcl-2, active caspase 3, cleaved PARP), human apoptosis panel, MAGPIX; format: cell-based; details: vs negative control
Experimental: as §3, §4

SW620 cells [7] = assay: Cytotoxic activity, sulforhodamine B (SRB) staining; format: cell-based, human; details: for IC50: Homo sapiens, SW-620, mean ± SE, read-out: SW620 IC50
Experimental: as §1, §2

SW480 cells [8] = assay: as above; format: cell-based, human; details: for IC50: Homo sapiens, SW480, mean ± SE, read-out: SW480 IC50
Experimental: as §1, §2

SW620 cells [9] = assay: Intracellular ROS production, 2',7'-DCFDA probe; format: cell-based, human; details: SW620, 24 h, treated at IC50, mean ± SE
Experimental: (§6) In order to evaluate the effect of the chosen styrylquinolines on the production of ROS in malignant cells, the 2′,7′-dichlorofluorescein diacetate (2′,7′-DCFDA) probe (Calbiochem, San Diego, CA, USA) was used as described by Kim et al.. Briefly, malignant cells were seeded at a final density of 2.5 × 10^5 cells/well in 6-well tissue culture plates for 24 h at 37 °C in a 5% CO2 atmosphere. […] After treatment, 2′,7′-DCFDA was added to a final concentration of 10 µM and incubated at 37 °C for 30 min. Finally, representative images of each well were taken using a fluorescence microscope (Axio Vert. A1; ZEISS, Jena, Germany) and Zen blue 3.4 software. The cell lysate was obtained from each well, and relative fluorescence units (RFU) were measured at excitation/emission wavelength (Ex/Em) = 485/525 nm using the Varioskan Lux microplate reader (Thermo Fisher Scientific, Waltham, MA, USA). The total protein concentration was quantified with the BCA method using the Pierce^TM BCA kit (Thermo Fisher Scientific, Waltham, MA, USA) to normalize the UFR.

SW480 cells [10] = assay: Intracellular ROS production, 2',7'-DCFDA probe; format: cell-based, human; details: SW480, 48 h, treated at IC50, mean ± SE
Experimental: as §6

Row | SMILES | IC50 (HaCaT cells; 24 h treatment) [µM] | IC50 (HaCaT cells; 48 h treatment) [µM] | Concentration required to significantly decrease cell viability percentage from day 2 post-treatment (SW620 cells [4]) [µM] | Concentration from which cell viability percentage is decreased to 0% / high percentage of reduction (SW620 cells [4]) [µM] | Concentration required to significantly decrease cell viability percentage from day 2 post-treatment (SW480 cells [5]) [µM] | Concentration from which cell viability percentage is decreased to 0% / high percentage of reduction (SW480 cells [5]) [µM] | SI (IC50 HaCaT / IC50 SW620) (SW620 cells [7]; 24 h treatment) | SI (IC50 HaCaT / IC50 SW620) (SW620 cells [7]; 48 h treatment) | IC50 (SW620 cells [7]; 24 h treatment) [µM] | IC50 (SW620 cells [7]; 48 h treatment) [µM] | SI (IC50 HaCaT / IC50 SW480) (SW480 cells [8]; 24 h treatment) | SI (IC50 HaCaT / IC50 SW480) (SW480 cells [8]; 48 h treatment) | IC50 (SW480 cells [8]; 24 h treatment) [µM] | IC50 (SW480 cells [8]; 48 h treatment) [µM] | further results
1 | Oc1ccc(/C=C/c2ccc3cccc(O)c3n2)cc1 [Compound 3a] | 232 ± 29.2 | 47.9 ± 3.3 | 5 | 10 | 20 | 10 | 3.8 | 2.9 | 60.5 ± 2.9 | 16.6 ± 2.2 | 3.4 | 1.8 | 67.7 ± 2.8 | 26.5 ± 4 | Apoptotic cells (cell death by apoptosis) (SW620 cells [1]; SW620, 24 h): 6.8%; Apoptotic cells (cell death by apoptosis) (SW620 cells [1]; SW620, 48 h): 21.5%; Levels of immunological markers (SW620 cells [2]; SW620, 24 h post-treatment): significant increase in the levels of GM-CSF, IL-13, IL-18, IL-4, TNF alpha, IL-22, and IL-9; Levels of immunological markers (SW620 cells [2]; SW620, 48 h post-treatment): levels of IL-4 and IL-10 were significantly increased; Levels of immunological markers (SW480 cells [3]; SW480, 24 h post-treatment): significant increases in the levels of GM-CSF, IFN gamma, IL-12p70, IL-4, IL-6, IL-10, and IL-17A; Levels of immunological markers (SW480 cells [3]; SW480, 48 h post-treatment): significant increases in GM-CSF, IFN gamma, IL-4, IL-6, IL-10 and IL-17A levels; also recorded: significant increases in the levels of IL-1 beta, IL-13, IL-18, IL-2, TNF alpha, IL-22, IL-27, and IL-9; Levels of Bcl-2 and cleaved PARP (SW620 cells [6]; SW620, 24 and 48 h): did not show significant differences; Levels of active caspase 3 (SW620 cells [6]; SW620, 24 and 48 h post-treatment): significantly increased
2 | Oc1ccc(/C=C/c2ccc3cccc(O)c3n2)cc1O [Compound 3d] | 164 ± 14.1 | 78.9 ± 2.3 | 20 | 40 | 40 | 40 | 3.0 | 12.3 | 54.6 ± 7.5 | 6.4 ± 1.1 | 1.0 | 1.9 | 160 ± 16.6 | 42.5 ± 5.2 | ROS levels (SW620 cells [9]): 1.8 ± 0.1 RFU; ROS levels (SW480 cells [10]): 3.3 ± 0.2 RFU
